Test results published in PMC5448350, “2-Pentadecyl-2-Oxazoline, the Oxazoline of Pea, Modulates Carrageenan-Induced Acute Inflammation” (Frontiers in Pharmacology, 2017).

Target: T1, N-acylethanolamine-hydrolyzing acid amidase (NAAA) (Homo sapiens, UniProt Q02083)
T1 construct: human recombinant NAAA stably expressed in HEK-293 cells (12000 × g membrane fraction)
T1 sequence (Q02083 29-125): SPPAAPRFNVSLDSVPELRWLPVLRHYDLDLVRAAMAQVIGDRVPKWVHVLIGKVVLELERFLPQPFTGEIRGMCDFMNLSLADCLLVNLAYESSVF
T1 sequence (Q02083 126-359): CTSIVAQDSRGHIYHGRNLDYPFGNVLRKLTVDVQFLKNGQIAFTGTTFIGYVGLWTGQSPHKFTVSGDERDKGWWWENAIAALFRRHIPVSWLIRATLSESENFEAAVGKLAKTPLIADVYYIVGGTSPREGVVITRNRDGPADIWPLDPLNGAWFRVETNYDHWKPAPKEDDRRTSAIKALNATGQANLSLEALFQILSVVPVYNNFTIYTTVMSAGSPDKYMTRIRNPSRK
Assay: [3H]-PEA hydrolysis assay in membranes of HEK-293 cells overexpressing human NAAA, pH […]
Type: cell-based
Details: HEK293

Compound: CCCCCCCCCCCCCCCC1=NCCO1 [PEA-OXA, 2-Pentadecyl-2-oxazoline]
- inhibition at 50 µM: 75%
